Reference: patent US4206215A, “Antimicrobial bis-[4-(substituted-amino)-1-pyridinium]alkanes” (Sterling Drug Inc., priority 1977, dated 1980)

How the values were obtained:
[1] = tested on: S. Aureus Smith; assay: In vitro antibacterial activity, MIC (modified Autotiter method); assay type: cell-based, Staphylococcus aureus; conditions: Staphylococcus aureus, 20 h, 18-20 hours at 37° C.; read-out: MIC S. Aureus Smith
How it was run: (§1)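 Final drug range: 500 → 0.06 mcg./ml., twofold decrements, in inoculated semisynthetic glucose medium. Dilution performed by Autotiter transfer loops in sterile water from a 1,000 mcg./ml. compound solution.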

[2] = tested on: K. pneum. 39645; assay: as above; assay type: cell-based, Klebsiella pneumoniae; conditions: Klebsiella pneumoniae, 20 h, 18-20 hours at 37° C.; read-out: MIC K. pneum. 39645
How it was run: as §1

[3] = tested on: Herpes simplex type 2 virus; assay: Virucidal activity in vitro (plaque inhibition test); assay type: cell-based; conditions: 2 mg. of test compound on growth medium
Method: Virucidal activity of representative examples against Herpes simplex type 2 virus was determined in vitro employing a procedure similar to the plaque inhibition test for detection of specific inhibitors of DNA-containing viruses published by E. C. Herrmann, Jr., Proc. Soc. Exp. Biol. Med. 107, 142 (1961) wherein 2 mg. of the test compound was placed on the surface of the growth medium.

[4] = tested on: C. albicans 10231; assay: In vitro antifungal activity, MIC (modified Autotiter method); assay type: cell-based, Candida albicans; conditions: Candida albicans, 10231, 20 h, 18-20 hours at 37° C.; read-out: MIC C. albicans 10231
How it was run: as §1

[5] = tested on: C. albicans Wisc.; assay: as above; assay type: cell-based, Candida albicans; conditions: Candida albicans, 20 h, 18-20 hours at 37° C.; read-out: MIC C. albicans Wisc.
How it was run: as §1

[6] = tested on: E. coli AB1932-1; assay: In vitro antibacterial activity, MIC (modified Autotiter method); assay type: cell-based, Escherichia coli; conditions: Escherichia coli, AB19321, 20 h, 18-20 hours at 37° C.; read-out: MIC E. coli AB1932-1
How it was run: as §1

[7] = tested on: E. coli Vogel; assay: as above; assay type: cell-based, Escherichia coli; conditions: Escherichia coli, 20 h, 18-20 hours at 37° C.; read-out: MIC E. coli Vogel
How it was run: as §1

[8] = tested on: E. coli 100/B22; assay: as above; assay type: cell-based, Escherichia coli; conditions: Escherichia coli, 100/B22, 20 h, 18-20 hours at 37° C.; read-out: MIC E. coli 100/B22
How it was run: as §1

[9] = tested on: P. mirab. MGH-1; assay: as above; assay type: cell-based, Proteus mirabilis; conditions: Proteus mirabilis, 20 h, 18-20 hours at 37° C.; read-out: MIC P. mirab. MGH-1
How it was run: as §1

[10] = tested on: S. pyogen. C203; assay: as above; assay type: cell-based, Streptococcus pyogenes; conditions: 18-20 hours at 37° C.; for MIC: Streptococcus pyogenes, 20 h, read-out: MIC S. pyogen. C203
How it was run: as §1

[11] = tested on: A. niger 16404; assay: In vitro antifungal activity, MIC (modified Autotiter method); assay type: cell-based, Aspergillus niger; conditions: 18-20 hours at 37° C.; for MIC: Aspergillus niger, 16404, 20 h, read-out: MIC A. niger 16404
How it was run: as §1

[12] = tested on: Ps. aerug. MGH-2; assay: In vitro antibacterial activity, MIC (modified Autotiter method); assay type: cell-based, Pseudomonas aeruginosa; conditions: Pseudomonas aeruginosa, 20 h, 18-20 hours at 37° C.; read-out: MIC Ps. aerug. MGH-2
How it was run: as §1

[13] = tested on: T. menta. 9129; assay: In vitro antifungal activity, MIC (modified Autotiter method); assay type: cell-based, Trichophyton mentagrophytes; conditions: Trichophyton mentagrophytes, 20 h, 18-20 hours at 37° C.; read-out: MIC T. menta. 9129
How it was run: as §1

Row | Structure (SMILES) | MIC [1] | MIC [2] | Virucidal activity against Herpes simplex type 2 virus [3] | MIC [4] | MIC [5] | MIC [6] | MIC [7] | MIC [8] | MIC [9] | MIC [10] | MIC [11] | MIC [12] | MIC [13] | MIC S. pyogen. C203 [10] | MIC A. niger 16404 [11]
1 | CCCCCCNc1cc[n+](CCCCCC[n+]2ccc(NCCCCCC)cc2)cc1 [Example 17, 1,6-bis-[4-(hexylamino)-1-pyridinium]-hexane dibromide] | 0.49 µg/mL | 125 µg/mL | active | 15.6 µg/mL | 15.6 µg/mL | 7.8 µg/mL | 31.3 µg/mL | 0.78 µg/mL | > 250 µg/mL | > 250 µg/mL | 7.8 µg/mL | > 125 µg/mL | – | – | –
2 | c1c[n+](CCCCCC[n+]2ccc(NC3CCCCC3)cc2)ccc1NC1CCCCC1 [Example 36, 1,6-bis-[4-(cyclohexylamino)-1-pyridinium]hexane dibromide] | 15.6 µg/mL | > 125 µg/mL | active | 125 µg/mL | 125 µg/mL | 125 µg/mL | > 125 µg/mL | > 125 µg/mL | > 125 µg/mL | 15.6 µg/mL | 125 µg/mL | > 125 µg/mL | 15.6 µg/mL | – | –
3 | CCCCCCNc1cc[n+](CCCCCCC[n+]2ccc(NCCCCCC)cc2)cc1 [Example 18, 1,7-bis-[4-(hexylamino)-1-pyridinium]heptane dibromide] | 0.39 µg/mL | 15.6 µg/mL | active | 6.25 µg/mL | 7.8 µg/mL | 7.8 µg/mL | 15.6 µg/mL | 7.8 µg/mL | > 125 µg/mL | 0.49 µg/mL | 15.6 µg/mL | > 125 µg/mL | 15.6 µg/mL | – | –
4 | CCCCCCNc1cc[n+](CCCC[n+]2ccc(NCCCCCC)cc2)cc1 [Example 16, 1,4-bis-[4-(hexylamino)-1-pyridinium]butane dibromide] | 7.8 µg/mL | > 125 µg/mL | inactive | 125 µg/mL | 125 µg/mL | 62.5 µg/mL | 125 µg/mL | 125 µg/mL | > 125 µg/mL | 1.95 µg/mL | 125 µg/mL | > 250 µg/mL | 15.6 µg/mL | – | –
5 | CCCCCCCNc1cc[n+](CCCCCCC[n+]2ccc(NCCCCCCC)cc2)cc1 [Example 21, 1,7-bis-[4-(heptylamino)-1-pyridinium]heptane dibromide] | 0.24 µg/mL | 3.9 µg/mL | active | 3.9 µg/mL | 3.9 µg/mL | 1.95 µg/mL | 1.95 µg/mL | 1.95 µg/mL | 125 µg/mL | 0.98 µg/mL | 15.6 µg/mL | 125 µg/mL | 3.9 µg/mL | – | –
6 | CCCCCCCNc1cc[n+](CCCCCC[n+]2ccc(NCCCCCCC)cc2)cc1 [Example 61, 1,6-bis-[4-(heptylamino)-1-pyridinium]hexane dibromide] | 0.2 µg/mL | 6.3 µg/mL | active | 6.25 µg/mL | 6.25 µg/mL | 1.6 µg/mL | 3.1 µg/mL | 1.6 µg/mL | > 250 µg/mL | – | – | 125 µg/mL | 3.13 µg/mL | 0.4 µg/mL | 25 µg/mL
7 | c1c[n+](CCCCCCCCCC[n+]2ccc(NC3CCCCC3)cc2)ccc1NC1CCCCC1 [Example 40, 1,10-bis-[4-(cyclohexylamino)-1-pyridinium]decane dibromide] | 0.24 µg/mL | > 125 µg/mL | inactive | 3.9 µg/mL | 7.8 µg/mL | 7.8 µg/mL | 15.6 µg/mL | 15.6 µg/mL | > 125 µg/mL | 3.9 µg/mL | 7.8 µg/mL | > 125 µg/mL | 1.95 µg/mL | – | –
